Drawing on PubChem BioAssay AID330 (DTP/NCI, 2004), this text covers T/C for 19 compounds.

“And” between values parts separate entries of the source, which are not always exact repeats. Identical values can stand only once. Toxic doses and inconclusive results are not listed.

In this assay the test system is P388 leukemia ip, CD2F1 mice, survival T/C. The experiment in a line: NCI In Vivo Anticancer Drug Screen. Data for tumor model P388 Leukemia (intraperitoneal) in CD2F1 (CDF1) mice. Conditions: endpoint: median survival time, higher = longer survival. In outline: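 Mice carrying the transplanted tumor received test compound or vehicle. Survival was recorded in each group, and the value is the treated-group measurement divided by that of the vehicle-treated control group.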

Where [1] appears, read: dose: 50.0 mg/kg/injection, schedule: Q01DX009 (ip), vehicle: Klucel (hydroxypropylcellulose) (HPC).
[2] abbreviates: dose: 100.0 mg/kg/injection, schedule: Q01DX009 (ip), vehicle: Klucel (hydroxypropylcellulose) (HPC).
[3] abbreviates: dose: 200.0 mg/kg/injection, schedule: Q01DX009 (ip), vehicle: Klucel (hydroxypropylcellulose) (HPC).
[4] abbreviates: dose: 25.0 mg/kg/injection, schedule: Q01DX009 (ip), vehicle: Klucel (hydroxypropylcellulose) (HPC).
Where [5] appears, read: dose: 50.0 mg/kg/injection, schedule: Q01DX009 (ip), vehicle: saline.
Setting [6] is: dose: 50.0 mg/kg/injection, schedule: Q01DX005 (ip), vehicle: saline with Tween-80.
The mark [7] stands for this setting: dose: 100.0 mg/kg/injection, schedule: Q01DX005 (ip), vehicle: saline with Tween-80.
The mark [8] stands for this setting: dose: 3.12 mg/kg/injection, schedule: Q01DX009 (ip), vehicle: saline with Tween-80.
The mark [9] stands for this setting: dose: 6.25 mg/kg/injection, schedule: Q01DX009 (ip), vehicle: saline with Tween-80.

Take `COc1ccc(-c2c[s+]cs2)cc1`: the T/C reads like this: (dose: 6.25 mg/kg/injection, schedule: Q01DX009 (ip), vehicle: distilled water + Tween-80) 103 % of control; (dose: 12.5 mg/kg/injection, schedule: Q01DX009 (ip), vehicle: distilled water + Tween-80) 112 % of control; (dose: 25.0 mg/kg/injection, schedule: Q01DX009 (ip), vehicle: distilled water + Tween-80) 100 % of control; (dose: 50.0 mg/kg/injection, schedule: Q01DX009 (ip), vehicle: distilled water + Tween-80) 116 % of control; (dose: 100.0 mg/kg/injection, schedule: Q01DX009 (ip), vehicle: distilled water + Tween-80) 109 % of control; (dose: 200.0 mg/kg/injection, schedule: Q01DX009 (ip), vehicle: distilled water + Tween-80) 93 % of control.

In the case of `BrC1CCC(OCc2ccccc2)C(OCc2ccccc2)C1` (centres undefined), the T/C by setting is: under setting [1], 100 % of control; under setting [2], 98 % of control; under setting [3], 97 % of control.

Regarding `CC(=O)NC(Cc1cc(I)c(O)c(I)c1)C(=O)O` (centres undefined), the T/C is, setting by setting: under setting [4], 94 % of control; under setting [1], 88 % of control; under setting [5], 100 % of control; under setting [2], 94 % of control; (dose: 100.0 mg/kg/injection, schedule: Q01DX009 (ip), vehicle: saline) 107 % of control; under setting [3], 94 % of control. In addition, the T/C (dose: 200.0 mg/kg/injection, schedule: Q01DX009 (ip), vehicle: saline) was 105 % of control.

Turning to `Cc1ccc(Cl)cc1N=Cc1ccccc1O`, the T/C reads like this: (dose: 100.0 mg/kg/injection, schedule: Q04DX003 (ip), vehicle: saline with Tween-80) 100 % of control; (dose: 200.0 mg/kg/injection, schedule: Q04DX003 (ip), vehicle: saline with Tween-80) 95 % of control; (dose: 400.0 mg/kg/injection, schedule: Q04DX003 (ip), vehicle: saline with Tween-80) 100 % of control.

Regarding `COc1ccc(C/C=N/O)c(OC)c1`, the T/C is 91 % of control (dose: 12.5 mg/kg/injection, schedule: Q01DX009 (ip), vehicle: other); 89 % of control (dose: 25.0 mg/kg/injection, schedule: Q01DX009 (ip), vehicle: other); 93 % of control (dose: 100.0 mg/kg/injection, schedule: Q01DX009 (ip), vehicle: other).

`CCC/C=C(\CC)COC(=O)Nc1ccccc1`: the T/C was 86 % of control under setting [6] and 100 % of control under setting [7].

Consider `CC(=O)CCCCCCCCCCCCCCC1=C(C)C(=O)OC1=O`, for which the T/C (dose: 25.0 mg/kg/injection, schedule: Q01DX005 (ip), vehicle: Klucel (hydroxypropylcellulose) (HPC)) was 103 % of control; the T/C (dose: 50.0 mg/kg/injection, schedule: Q01DX005 (ip), vehicle: Klucel (hydroxypropylcellulose) (HPC)) is 99 % of control; the T/C (dose: 100.0 mg/kg/injection, schedule: Q01DX005 (ip), vehicle: Klucel (hydroxypropylcellulose) (HPC)) was 89 % of control; the T/C (dose: 400.0 mg/kg/injection, schedule: Q01DX005 (ip), vehicle: Klucel (hydroxypropylcellulose) (HPC)) was 96 % of control.

Turning to `CN1COc2c(Cl)cc(Cl)cc2C1`, the T/C by setting is: (dose: 25.0 mg/kg/injection, schedule: Q01DX009 (ip), vehicle: saline with Tween-80) 95 % of control; (dose: 50.0 mg/kg/injection, schedule: Q01DX009 (ip), vehicle: saline with Tween-80) 90 % of control; (dose: 100.0 mg/kg/injection, schedule: Q01DX009 (ip), vehicle: saline with Tween-80) 86 % of control.

As for `COc1ccc(C(SCC(N)C(=O)O)(c2ccccc2)c2ccc(OC)cc2)cc1` (centres undefined), the T/C by setting is: (dose: 33.0 mg/kg/injection, schedule: Q04DX003 (ip), vehicle: saline) 185 % of control; (dose: 50.0 mg/kg/injection, schedule: Q04DX003 (ip), vehicle: saline) 165 % of control; (dose: 75.0 mg/kg/injection, schedule: Q04DX003 (ip), vehicle: saline) 90 % of control.

As for `CC(=O)OC1CCC2(C)C(C1)CC(OC(C)=O)C1C2CC(OC(C)=O)C2(C)C(/C(C)=C\C=C(c3ccccc3)c3ccccc3)CCC12` (centres undefined), the T/C runs as follows: under setting [1], 103 % of control; under setting [2], 112 % of control; under setting [3], 121 % of control.

Consider `CC(=O)O/C=C(/C=C/OC(C)=O)C(C/C=C(\C)C#CC=C(C)C)OC(C)=O` (centres undefined), for which the T/C is 98 % of control (dose: 5.31 mg/kg/injection, schedule: Q01DX005 (ip), vehicle: saline with Tween-80); 103 % of control (dose: 10.62 mg/kg/injection, schedule: Q01DX005 (ip), vehicle: saline with Tween-80); 103 % of control and 94 % of control (dose: 21.25 mg/kg/injection, schedule: Q01DX005 (ip), vehicle: saline with Tween-80); 87 % of control (dose: 42.5 mg/kg/injection, schedule: Q01DX005 (ip), vehicle: saline with Tween-80).

Turning to `CC(=O)n1nc(C)c(-c2onc3ccc(Cl)cc23)c1C`, the T/C by setting is: under setting [1], 104 % of control; under setting [2], 101 % of control; under setting [3], 90 % of control.

With `C=C(C)CNC(=O)C(C)O` (centres undefined), the T/C under setting [6] is 97 % of control; the T/C under setting [7] is 93 % of control; the T/C (dose: 200.0 mg/kg/injection, schedule: Q01DX005 (ip), vehicle: saline with Tween-80) was 99 % of control.

Take `CCC[CH2][Sn]([CH2]CCC)[O][Sn]([Cl])([CH2]CCC)[CH2]CCC`: the T/C is, setting by setting: (dose: 0.79 mg/kg/injection, schedule: Q01DX009 (ip), vehicle: saline) 100 % of control; (dose: 1.56 mg/kg/injection, schedule: Q01DX009 (ip), vehicle: saline with Tween-80) 100 % of control; (dose: 1.56 mg/kg/injection, schedule: Q01DX009 (ip), vehicle: saline) 100 % of control; under setting [8], 101 % of control and 113 % of control; (dose: 3.12 mg/kg/injection, schedule: Q01DX009 (ip), vehicle: saline) 97 % of control; under setting [9], 100 % of control. Besides, the T/C (dose: 6.25 mg/kg/injection, schedule: Q01DX009 (ip), vehicle: saline) is 88 % of control.

Consider `Cc1nn(-c2ccc(S(=O)(=O)[O-])cc2)c([O-])c1N=[N+](C)c1ccc(-c2ccc(N=Nc3ccc4c(S(=O)(=O)[O-])cc(S(=O)(=O)[O-])c(N)c4c3[O-])c([O-])c2)cc1[O-].[Cu+2].[Cu+2].[Na+]`, for which the T/C is 96 % of control under setting [8]; 96 % of control under setting [9]; 99 % of control and 86 % of control (dose: 12.5 mg/kg/injection, schedule: Q01DX009 (ip), vehicle: saline with Tween-80); 97 % of control (dose: 12.5 mg/kg/injection, schedule: Q01DX009 (ip), vehicle: saline); 96 % of control under setting [5].

On to `COc1cc2c(cc1OC)C(Cc1ccc(OC)c(Oc3ccc(CC4c5cc(OC)c(OC)c(O)c5CCN4C)cc3)c1)N(C)CC2` (centres undefined), for which the T/C by setting is: (dose: 20.0 mg/kg/injection, schedule: Q01DX009 (ip), vehicle: Klucel (hydroxypropylcellulose) (HPC)) 106 % of control; (dose: 40.0 mg/kg/injection, schedule: Q01DX009 (ip), vehicle: Klucel (hydroxypropylcellulose) (HPC)) 107 % of control; (dose: 80.0 mg/kg/injection, schedule: Q01DX009 (ip), vehicle: Klucel (hydroxypropylcellulose) (HPC)) 111 % of control.

Take `CN=C(N)N/N=C(\C)c1ccc2c(c1)Cc1cc(Br)ccc1-2`: the T/C is, setting by setting: (dose: 6.25 mg/kg/injection, schedule: Q04DX002 (ip), vehicle: saline with Tween-80) 102 % of control; (dose: 12.5 mg/kg/injection, schedule: Q04DX002 (ip), vehicle: saline with Tween-80) 105 % of control; (dose: 25.0 mg/kg/injection, schedule: Q04DX002 (ip), vehicle: saline with Tween-80) 105 % of control and 124 % of control; (dose: 50.0 mg/kg/injection, schedule: Q04DX002 (ip), vehicle: saline with Tween-80) 98 % of control and 101 % of control.

`c1ccc(-c2nc3cnccc3o2)cc1`: the T/C is, setting by setting: (dose: 6.25 mg/kg/injection, schedule: Q01DX009 (ip), vehicle: Klucel (hydroxypropylcellulose) (HPC)) 103 % of control; (dose: 12.5 mg/kg/injection, schedule: Q01DX009 (ip), vehicle: Klucel (hydroxypropylcellulose) (HPC)) 105 % of control; under setting [4], 114 % of control; under setting [1], 112 % of control.

With `COc1cccc2c1N(COC(C)=O)C(=O)C1C=CC(C)(C)OC21` (centres undefined), the T/C by setting is: (dose: 8.0 mg/kg/injection, schedule: Q01DX009 (ip), vehicle: Klucel (hydroxypropylcellulose) (HPC)) 97 % of control; (dose: 16.0 mg/kg/injection, schedule: Q01DX009 (ip), vehicle: Klucel (hydroxypropylcellulose) (HPC)) 95 % of control; (dose: 32.0 mg/kg/injection, schedule: Q01DX009 (ip), vehicle: Klucel (hydroxypropylcellulose) (HPC)) 97 % of control; (dose: 64.0 mg/kg/injection, schedule: Q01DX009 (ip), vehicle: Klucel (hydroxypropylcellulose) (HPC)) 92 % of control.
